The nature of data set [1]: Single dose pharmacokinetics (PK) study in male Wister-Han rats. The following applies: rat; for clearance / half-life / AUC(0-t) / Vd / Cmax: male, Wister-Han, plasma; for Vd: read-out: Vss; for F: dose normalized AUC0-last after IV and PO dose. The data set is classed as in vivo. The method, then: Pharmacokinetic properties of selected compounds were assessed by single dose PK studies in Male Wister-Han Rats (vendor: Beijing Vital River Laboratory Animal Technology Co., Ltd). Briefly, two groups of animals were administered a single dose of respective compound intravenously (IV, bolus) at 2 mg/kg or orally (PO, by gavage) at 10 mg/kg. Blood samples (approximately 150 μL) were collected via Jugular vein at 5 min (only for IV), 15 min, 30 min, 1 h, 2 h, 4 h, 7 h and 24 h post-dose. Blood samples were placed into tubes containing EDTA-K2 anticoagulant and centrifuged at 3000 rpm for 15 min at 4° C. to separate plasma from the samples. After centrifugation, the resulting plasma was transferred to clean tubes for bioanalysis with LC/MS/MS. The pharmacokinetic parameters were calculated using non-compartmental analysis. The volume of distribution (Vss), half-life (T1/2) and clearance (CL) were obtained based on the plasma concentration-time curve after IV dose. The peak concentration (Cmax) was recorded directly from experimental observations after PO dose. The area under the plasma concentration-time curve (AUC0-last) was calculated using the linear trapezoidal rule up to the last detectable concentration. The bioavailability (F) was calculated based on the dose normalized AUC0-last after IV and PO dose.
The Vss of a drug represents the degree to which a drug is distributed in body tissue rather than the plasma. Vss is directly proportional with the amount of drug distributed into tissue. A higher Vss indicates a greater amount of tissue distribution.

Data set [2] in a line: 3T3 in vitro phototoxicity assay (Neutral Red uptake). The following applies: mouse, Balb/c 3T3 mouse fibroblasts (clone A 31, ATCC CCL 163); approx. 5 J/cm^2 UVA light. The data set is classed as cell-based, mouse. From the text: (§1) Phototoxicity is defined as a toxic response that is elicited after the first exposure of the skin to certain chemicals and subsequent exposure to light, or that is induced similarly by skin irradiation after systemic administration of a chemical substance. The assay used in this study is designed to detect the phototoxic potential of a chemical by using a simple in vitro cytotoxicity assay with Balb/c 3T3 mouse fibroblasts. The principle of this test is a comparison of the cytotoxicity of a chemical when tested with and without exposure to a non-toxic dose of UVA-light. Cytotoxicity is expressed as a dose dependent reduction of the growth rate of cells as determined by uptake of the vital dye Neutral Red one day after treatment.
(§2) Preparation of Stock Solution and Dosage of Test Item A small amount of substance was weighed and formulated freshly in DMSO just before the start of the exposure of the cells. This stock solution or appropriate dilutions with DMSO were added to the cell suspensions to obtain the required final concentrations. All solutions were generally prepared in Eppendorf caps and discarded after use.
(§3) • Chlorpromazine (HCL) (Sigma, Batch/Lot No.: 120M1328V), test concentration: 300 μg/mL, Solvent: PBS/3% DMSO
(§4) For this study the Neutral Red uptake (NRU) assay of Borenfreund and Puemer (Borenfreund, E, Puemer J A. Toxicity determined in vitro by morphological alterations and Neutral Red absorption. Toxicology Lett. 1985; 24:119-124) modified according to INVITTOX protocol No 78 (ERGATT/FRAME data bank of in vitro techniques in toxicology. INVITTOX PROTOCOL No 78. 3T3 NRU Phototoxicity Assay. March 1994) has been adapted to examine a possible phototoxic potential of the test item. This assay is based on the active uptake of the Neutral Red dye into the lysosomes of cultured murine fibroblasts. Because lysosomal membranes are known to be a site of action of many phototoxic compounds, this assay can provide a measure of potential for phototoxic injury.
(§5) A murine fibroblasts clone A 31 (ATCC no. CCL 163—passage No. 108) were cultured in 175 cm^2 tissue culture grade flasks, containing sDMEM (Dulbecco's […] Essential Medium, supplemented with 10% fetal calf serum, 2 mM L-glutamine, 100 units/ml Penicillin and 100 μg/ml streptomycin) at 37° C. in a humidified atmosphere of 6% CO2. Before cells approach confluence they were removed from flasks by trypsinisation. Prior to use in an assay, the cells were transferred to 96-well microtiter plates at a concentration of 1×10^4 cells/well in 100 μl volumes of sDMEM and allowed to attach for 24 h. […]
(§6) For each test item the microtiter plates were prepared according to Table 6. […] UV flux was measured with a UV-meter (Dr. Gröbel RM21). […]

Data set [3] relates to Balb/c 3T3 mouse fibroblasts. The data set is described as above. The class given is cell-based. The following applies: IC50 with and without UV exposure compared; cut-off >5.
Description: as §1, §2, §3, §4, §5, §6

Setting [4] is: IV 2 mg/kg, read-out: IV AUC0-last.
The mark [5] stands for this setting: PO 10 mg/kg, read-out: PO AUC0-last.

Molecules are shown by their SMILES. Read-outs that look alike come from different tables or passages of the source.

By clearance is commonly meant a measure of how efficiently the substance is removed, as volume per time. A higher clearance goes with efficient removal. A word on the half-life: it is the time needed for the level to fall by half in the phase considered. For orientation: Cmax means the peak of the concentration-time curve. A word on the IC50: it is the concentration at which inhibition is half-maximal. High values mean weaker potency, low ones greater potency.

In the case of `Cc1cc(N2CCC(c3ncc(N4CCNCC4)cc3C)CC2)c2cnn(C)c2n1` [Example 7, 1,6-dimethyl-4-[4-(3-methyl-5-piperazin-1-yl-2-pyridyl)-1-piperidyl]pyrazolo[3,4-b]pyridine], in data set [1] (IV 2 mg/kg), the clearance came to 16 mL/min/kg, the half-life was 882 min and the Vd turned out to be 16.8 L/kg. For the same molecule, the AUC(0-t) in data set [1] (setting [4]) is 1520 ng·h/mL. Further, in data set [1] (PO 10 mg/kg), the Cmax was 465 ng/mL. Further, in data set [1] (setting [5]), the AUC(0-t) came out at 7510 ng·h/mL. In data set [1], this molecule showed an F of 100%.

With `CO[C@@H]1CN(c2cnc([C@@H]3CCN(c4cc(C)nc5c4cnn5C)C[C@H]3C)c(C)c2)C[C@H]1N` [Example 26, (3R,4R)-1-[6-[(3S,4R)-1-(1,6-dimethylpyrazolo[3,4-b]pyridin-4-yl)-3-methyl-4-piperidyl]-5-methyl-3-pyridyl]-4-methoxy-pyrrolidin-3-amine], in data set [1] (IV 2 mg/kg), the clearance worked out at 10.3 mL/min/kg, the half-life is 942 min and the Vd was 12.5 L/kg. Also, the AUC(0-t) in data set [1] (setting [4]) was found to be 2200 ng·h/mL. In addition, the maximum concentration (Cmax) in data set [1] (PO 10 mg/kg) worked out at 620 ng/mL. In addition, in data set [1] (setting [5]), the AUC(0-t) amounted to 9260 ng·h/mL. In data set [1], this molecule showed an F of 84.3%.

Take `Cc1cc(N2CC[C@@H](c3ncc(N4CCOC[C@@H](N)C4)cc3C)[C@H](C)C2)c2cnn(C)c2n1` [Example 28, (6S)-4-[6-[(3S,4R)-1-(1,6-dimethylpyrazolo[3,4-b]pyridin-4-yl)-3-methyl-4-piperidyl]-5-methyl-3-pyridyl]-1,4-oxazepan-6-amine]: in data set [1] (IV 2 mg/kg), the clearance turned out to be 30.2 mL/min/kg, the half-life was 530 min and the Vd was found to be 16.7 L/kg. The AUC(0-t) in data set [1] (setting [4]) stood at 974 ng·h/mL. Besides, the highest level in data set [1] (PO 10 mg/kg) (Cmax) was 122 ng/mL. Besides, the AUC(0-t) in data set [1] (setting [5]) worked out at 1800 ng·h/mL. In data set [1], this molecule showed an F of 37%. The same molecule came in with an IC50 at 1 h in data set [2] of over 120 µg/mL. The same molecule showed a Phototoxicity factor in data set [3] of 1.

Regarding `Cc1cc(N2CC[C@H](c3ccc(N4CCOC[C@@H](N)C4)cn3)[C@@H](C)C2)c2cnn(C)c2n1` [Example 40, (6S)-4-[6-[(3R,4S)-1-(1,6-dimethylpyrazolo[3,4-b]pyridin-4-yl)-3-methyl-4-piperidyl]-3-pyridyl]-1,4-oxazepan-6-amine], in data set [1] (IV 2 mg/kg), the clearance was 32.8 mL/min/kg, the half-life was 436 min and the Vd amounted to 13.2 L/kg. Besides, the AUC(0-t) in data set [1] (setting [4]) amounted to 1060 ng·h/mL. Besides, in data set [1] (PO 10 mg/kg), the peak level (Cmax) was 216 ng/mL. In addition, the AUC(0-t) in data set [1] (setting [5]) amounted to 2840 ng·h/mL. The molecule further displayed a F in data set [1] of 53.4%. Moreover, the IC50 at 1 h in data set [2] was over 120 µg/mL. The molecule further yielded a Phototoxicity factor in data set [3] of 1.

The values are drawn from US20240360126A1, “PYRAZOLO[3,4-B]PYRIDINE COMPOUNDS FOR THE TREATMENT OF AUTOIMMUNE DISEASE” (Hoffmann-La Roche Inc., priority 2021, published 2024).
